Reference: patent US11331375B2, “Compositions and methods for regulating leukocyte adhesion” (University of Virginia Patent Foundation, priority 2015, dated 2022)

Tests used:
[1] = system: HAoEC; experiment: In vitro ATP release assay, HAoEC; format: cell-based, human
Experimental: In vitro Human arterial and venous ECs were seeded in 24-well plates pre-coated with 0.2% gelatin and grown to confluency. On the day of experiment, the media was removed from each well and cells were carefully washed twice with warm serum free basal EC medium supplemented with 1% BSA. Cells were then incubated in 300 μL of fresh basal EC medium supplemented with 1% BSA for 30 minutes at 37° C. to allow degradation of extracellular ATP released due to mechanical stimulation during washes. Endogenous ecto-nucleotidases were inhibited by incubating EC monolayers with 300 μM ARL 67156 (Tocris) for 30 minutes at 37° C. Cells were then stimulated with recombinant human TNFα (R&D Systems). For dose response experiments, ECs were incubated with 0.1, 1, 5, 10, 50, or 100 ng/mL recombinant TNFα for 30 minutes at 37° C. […] The role of caspase activation was assessed by inhibition with the pan-caspase blocker Q-VD-OPh (100 μM; Sigma). […] Using a FluoStar Omega luminometer, 50 μL of luciferin:luciferase reagent (ATP bioluminescence assay kit HSII; Roche) was injected into each well and luminescence was recorded following a 5s orbital mix. ATP concentration in each sample was calculated from a standard curve for all experiments. Data are presented as a % change in ATP release from baseline (i.e. unstimulated cells) and expressed as mean±SEM (n=5 independent experiments with triplicate measurements).

[2] = system: isolated mesenteric venules; experiment: LDH release assay in perfused venules; format: cell-based, mouse; settings: perfusion of TNFα
Experimental: Isolated mesenteric venules were cannulated and perfused with recombinant mouse TNFα for 20 minutes followed by lysis buffer. Perfusate samples were collected as described above and LDH activity was assayed with the Cytotoxicity Detection Kit Plus (Roche) according to the manufacturer's protocol as an output for cell death. Data are expressed as mean±SEM (n=3 independent experiments).

[3] = system: Panx1; experiment: Western blot of Panx1 phosphorylation at Y198 in venous ECs; format: cell-based, human; settings: HUVEC and HSaVECs; TNFα 10 ng/mL
Experimental: Following stimulation with TNFα (in vitro: 10 ng/mL; ex vivo: 50 ng/mL), confluent endothelial cell monolayers or isolated mesenteric venules were homogenized in ice cold Triton extraction buffer (50 mM Tris-HCL, 150 mM NaCl , 5 mM EDTA, 1% deoxycholate, 1% NP-40 and 1% Triton-X100 in phosphate buffered saline and pH adjusted to 7.4) containing protease and phosphatase inhibitors. Cell/Tissue lysates were incubated with rotation at 4° C. for 20 minutes to solubilize proteins, followed by centrifugation for 5 minutes at 13,000× g to pellet cell debris. Protein concentration was quantified using the BCA method. 15-20 μg of total protein was subjected to SDS gel electrophoresis using 4-12% Bis-Tris gels (Invitrogen) and transferred to nitrocellulose membranes for immunoblotting. Membranes were blocked for 1 hr at room temperature with LiCOR blocking solution, then incubated overnight at 4° C. with primary antibodies against pY416SFKs, (BD Biosciences; 1:1000) pY198Panx1 (Alpha Diagnostic Intl (ADI); 1:1000) and GAPDH (Sigma; 1:10,000) or an antibody against the intracellular loop of Panx1 (Panx1-IL) (ADI; 1:1000) (normalization controls). Membranes were then washed and incubated with LiCOR secondary antibodies (1:10,000) and visualized and quantitated using LiCOR Odyssey. To inhibit SFK activity, EC monolayers were incubated with the SFK inhibitor PP2 (Tocris; 10 μM). […] To show specificity for the phosphorylated form of SFKs and Panx1, cell lysates were incubated with alkaline phosphatase for 1 hour at 37° C. Western blot images have been cropped for presentation. Uncropped Western blots can be found in FIGS. 12-13. Data are expressed as mean±SEM (n=3 independent experiments).

TNFα
ATP release on cytokine stimulation [1]: failed to release ATP
cell death (LDH accumulation in perfusates) [2]: did not induce cell death
Panx1 phosphorylation at Y198 [3]: increased phosphorylation at Y198
